Test results from patent publication US9718812B2, “Substituted thiazole or oxazole P2X7 receptor antagonists” (Axxam S.P.A., priority 2014, dated 2017).

Key:
P2X7 receptor (hP2X7) = P2X7 receptor (hP2X7) (Homo sapiens (Human), UniProt Q99572); experiment: Screen Quest Fluo-8 No Wash Calcium Assay (Bz-ATP-induced Ca2+ influx, FLIPR TETRA); format: cell-based; conditions: HEK-293 cells stably transfected with P2X7 receptor, Fluo-8 calcium, Low Divalent Cation Assay Buffer
Experimental: Extracellular binding of Bz-ATP to P2X7 receptor opens the channel and allows Ca2+ influx into the cells. This Ca2+ entry was measured in HEK-293 cells stably transfected with P2X7 receptor using Screen Quest™ Fluo-8 No Wash Calcium Assay Kit (AAt Bioquest®, cat. 36316). Once inside the cell, the lipophilic blocking groups of Fluo-8 are cleaved by non-specific cell esterases, resulting in a negatively-charged fluorescent dye that stays inside cells. Its fluorescence increases upon binding to calcium. When HEK-293/P2X7 cells are stimulated with Bz-ATP, Ca2+ enters the cells and the fluorescence of Fluo-8 NW increases. The dye has an absorption spectrum compatible with excitation at 488 nm by argon laser sources and its emission wavelength is in the range of 515-575 nm.
HEK-293 cells stably transfected with P2X7 receptor were seeded overnight in growth medium at 10,000 to 20,000 cells/well in 384-well plate. 24 hours later, the medium was removed and the cells were pre-loaded at RT for 1 hour with 20 μL/w of Fluo-8 NW. Then 10 μL/w of test compounds and reference antagonist A438079 at 3×-concentration were injected with the […] and the kinetic response over a period of five minutes was monitored.

P2X7 receptor = P2X7 receptor (Homo sapiens (Human), UniProt Q99572); experiment: YO-PRO-1 Uptake Assay (large pore form, Bz-ATP stimulated); format: cell-based; conditions: HEK-293 cells stably transfected with P2X7 receptor; Bz-ATP EC80 (30 μM); 5 μM YO-PRO-1
From the text: YO-PRO®-1 is a fluorescent DNA-binding dye with a MW of 374 Da (Molecular Probes®, cat. Y3603). This method is based upon the presumed ability of YO-PRO®-1 to enter through the dilated or “large pore form” of P2X7 receptor and to bind to intracellular DNA whereupon it increases many fold its fluorescence intensity. The dye has an absorption spectrum compatible with excitation at 488 nm by argon laser sources and its emission wavelength is in the range of 515-575 nm. The aim of this assay was to validate the interaction of antagonists with P2X7 receptor using an alternative readout to Ca^2+-sensitive fluorescent dyes.
HEK-293 cells stably transfected with P2X7 receptor were seeded overnight in growth medium at 20,000 cells/well in 384-well plate. 24 hours later, the medium was removed, the cells were washed with Low Divalent Cation Assay Buffer (0.3 mM Ca2+ and 0 mM Mg2+) and then pre-loaded with 20 μL/w of 5 μM YO-PRO®-1 dye. […] fluorescence measurement immediately started. Then, 10 μL/w of test compounds and reference antagonist A438079 at 3×-concentration were injected with the […] and the kinetic response over a period of five minutes was monitored. A second injection of 10 μL/w of 3× Bz-ATP EC80 (30 μM) was performed with the […] and the signal of the emitted fluorescence was recorded for additional 60 minutes. All the experiment was carried out with a Low Divalent Cation Assay Buffer (0.3 mM Ca^2+ and 0 mM Mg^2+).
The effect of the test compounds was measured as percent inhibition vs the reference antagonist and IC50 values were calculated accordingly.

P2X7 receptor (hP2X7), sequence (Q99572 whole entry): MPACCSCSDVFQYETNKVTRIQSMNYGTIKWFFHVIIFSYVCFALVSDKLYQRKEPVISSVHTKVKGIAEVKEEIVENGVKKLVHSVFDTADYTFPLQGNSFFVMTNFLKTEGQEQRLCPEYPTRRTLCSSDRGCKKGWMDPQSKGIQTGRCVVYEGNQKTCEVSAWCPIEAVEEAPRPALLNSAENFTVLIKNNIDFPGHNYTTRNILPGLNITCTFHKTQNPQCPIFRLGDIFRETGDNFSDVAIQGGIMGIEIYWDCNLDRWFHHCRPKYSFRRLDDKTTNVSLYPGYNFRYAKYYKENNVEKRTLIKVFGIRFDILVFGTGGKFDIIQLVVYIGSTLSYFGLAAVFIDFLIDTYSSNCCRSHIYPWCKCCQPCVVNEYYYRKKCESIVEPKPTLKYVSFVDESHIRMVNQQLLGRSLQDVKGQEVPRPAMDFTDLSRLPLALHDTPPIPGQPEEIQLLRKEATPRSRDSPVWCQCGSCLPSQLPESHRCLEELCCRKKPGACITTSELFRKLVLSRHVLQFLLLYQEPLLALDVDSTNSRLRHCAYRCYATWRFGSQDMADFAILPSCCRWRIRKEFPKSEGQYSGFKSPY
P2X7 receptor, sequence (Q99572 whole entry): as above

| SMILES | IC50 (P2X7 receptor (hP2X7)) [nM] | IC50 (P2X7 receptor) [nM] |
| --- | --- | --- |
| O=C(NCC(c1nccs1)N1CCc2ccccc2C1)c1c(F)cccc1Cl (centres unmarked) [Compound 1, 2-chloro-N-[2-(3,4-dihydro-1H-isoquinolin-2-yl)-2-(1,3-thiazol-2-yl)-ethyl]-6-fluoro-benzamide] | 1020 | 1360 |
| O=C(NCC(c1nccs1)N1CCC(F)(F)CC1)c1c(F)cccc1Cl (centres unmarked) [Compound 2, 2-chloro-N-[2-(4,4-difluoro-piperidin-1-yl)-2-(1,3-thiazol-2-yl)-ethyl]-6-fluoro-benzamide] | 306 | 1300 |
| O=C(NCC(c1cscn1)N1CCC(F)(F)CC1)c1c(F)cccc1Cl (centres unmarked) [Compound 4, 2-chloro-N-[2-(4,4-difluoropiperidin-1-yl)-2-(1,3-thiazol-4-yl)ethyl]-6-fluorobenzamide] | 845 | 3300 |
| O=C(NCC(c1cscn1)N1CCc2ccccc2C1)c1c(F)cccc1Cl (centres unmarked) [Compound 6, 2-chloro-N-[2-(3,4-dihydro-1H-isoquinolin-2-yl)-2-(1,3-thiazol-4-yl)-ethyl]-6-fluoro-benzamide] | 800 | 1260 |
| O=C(NCC(c1cscn1)N1CCCOCC1)c1c(F)cccc1Cl (centres unmarked) [Compound 7] | 840 | 1690 |
| O=C(NCC(c1cncs1)N1CCC(F)(F)CC1)c1c(F)cccc1Cl (centres unmarked) [Compound 8, 2-chloro-N-[2-(4,4-difluoro-piperidin-1-yl)-2-(1,3-thiazol-5-yl)ethyl]-6-fluoro-benzamide] | 28 | 389 |
| O=C(NCC(c1cncs1)N1CCc2ccccc2C1)c1c(F)cccc1Cl (centres unmarked) [Compound 9, 2-chloro-N-[2-(3,4-dihydro-1H-isoquinolin-2-yl)-2-(1,3-thiazol-5-yl)-ethyl]-6-fluoro-benzamide] | 100 | 464 |
| Nc1ccc(Cl)c(C(=O)NCC(c2cncs2)N2CCOCC2)c1 (centres unmarked) [Compound 12, 5-amino-2-chloro-N-[2-(morpholin-4-yl)-2-(1,3-thiazol-5-yl)ethyl]benzamide-] | 143 | 846 |
| Cc1cccc(Cl)c1C(=O)NCC(c1cncs1)N1CCOCC1 (centres unmarked) [Compound 13, 2-chloro-6-methyl-N-[2-(morpholin-4-yl)-2-(1,3-thiazol-5-yl)ethyl]benzamide] | 64 | 271 |
| Nc1ccc(Cl)c(C(=O)NCC(c2cncs2)N2CCc3ccccc3C2)c1 (centres unmarked) [Compound 17, 5-amino-2-chloro-N-[2-(1,2,3,4-tetrahydroisoquinolin-2-yl)-2-(1,3-thiazol-5-yl)ethyl]benzamide] | 136 | 690 |
| Cc1ncsc1C(CNC(=O)c1c(F)cccc1Cl)N1CCC(F)(F)CC1 (centres unmarked) [Compound 31, 2-chloro-N-[2-(4,4-difluoropiperidin-1-yl)-2-(4-methyl-1,3-thiazol-5-yl)ethyl]-6-fluorobenzamide] | 31 | 229 |
| COc1cccc(C(=O)NCC(c2ocnc2C)N2CCOCC2)c1OC (centres unmarked) [Compound 53, 2,3-dimethoxy-N-[2-(4-methyl-1,3-oxazol-5-yl)-2-(morpholin-4-yl)ethyl]benzamide] |  | 4900 |

These reach a lower IC50 (P2X7 receptor). Values come first.

| IC50 (P2X7 receptor (hP2X7)) [nM] | IC50 (P2X7 receptor) [nM] | SMILES |
| --- | --- | --- |
| 81 | 220 | Cc1cccc(C)c1C(=O)NCC(c1cncs1)N1CCOCC1 (centres unmarked) [Compound 11, 2,6-dimethyl-N-[2-(morpholin-4-yl)-2-(1,3-thiazol-5-yl)ethyl]benzamide] |
| 104 | 197 | Cc1cccc(Cl)c1C(=O)NCC(c1cncs1)N1CCc2ccccc2C1 (centres unmarked) [Compound 19, 2-chloro-6-methyl-N-[2-(1,2,3,4-tetrahydroisoquinolin-2-yl)-2-(1,3-thiazol-5-yl)ethyl]benzamide] |
| 90 | 190 | Cc1cccc(C)c1C(=O)NCC(c1cncs1)N1CCc2ccccc2C1 (centres unmarked) [Compound 18, 2,6-dimethyl-N-[2-(1,2,3,4-tetrahydroisoquinolin-2-yl)-2-(1,3-thiazol-5-yl)ethyl]benzamide] |
| 31 | 129 | COc1cccc(C(=O)NCC(c2cncs2)N2CCC(F)(F)CC2)c1OC (centres unmarked) [Compound 21, N-[2-(4,4-difluoropiperidin-1-yl)-2-(1,3-thiazol-5-yl)ethyl]-2,3-dimethoxybenzamide] |
| 32 | 98 | Nc1ccc(Cl)c(C(=O)NCC(c2cncs2)N2CCC(F)(F)CC2)c1 (centres unmarked) [Compound 16, 5-amino-2-chloro-N-[2-(4,4-difluoropiperidin-1-yl)-2-(1,3-thiazol-5-yl)ethyl]benzamide] |
| 57 | 57 | O=C(NCC(c1cncs1)N1CCOCC1)c1c(F)cccc1Cl (centres unmarked) [Compound 10, 2-chloro-6-fluoro-N(2-(morpholin-4-yl)-2-(thiazol-5-yl)-ethyl)benzamide] |
| 63 | 52 | O=C(NCC(c1cncs1)N1CCC(Oc2ccccc2)CC1)c1c(F)cccc1Cl (centres unmarked) [Compound 27, 2-chloro-6-fluoro-N-[2-(4-phenoxypiperidin-1-yl)-2-(1,3-thiazol-5-yl)ethyl]benzamide] |
| 111 | 44 | Cc1cccc(Cl)c1C(=O)NCC(c1cncs1)N1CCC(OCc2ccccc2)CC1 (centres unmarked) [Compound 24, N-{2-[4-(benzyloxy)piperidin-1-yl]-2-(1,3-thiazol-5-yl)ethyl}-2-chloro-6-methylbenzamide] |
| 119 | 44 | Cc1cccc(C)c1C(=O)NCC(c1cncs1)N1CCC(Oc2ccccc2)CC1 (centres unmarked) [Compound 26, 2,6-dimethyl-N-[2-(4-phenoxypiperidin-1-yl)-2-(1,3-thiazol-5-yl)ethyl]benzamide] |
| 55 | 44 | Cc1cccc(C)c1C(=O)NCC(c1scnc1C)N1CCC(F)(F)CC1 (centres unmarked) [Compound 32, N-[2-(4,4-difluoropiperidin-1-yl)-2-(4-methyl-1,3-thiazol-5-yl)ethyl]-2,6-dimethylbenzamide] |
| 118 | 40 | Cc1cccc(C)c1C(=O)NCC(c1cncs1)N1CCC(OCc2ccccc2)CC1 (centres unmarked) [Compound 23, N-{2-[4-(benzyloxy)piperidin-1-yl]-2-(1,3-thiazol-5-yl)ethyl}-2,6-dimethylbenzamide] |
| 8 | 38 | Cc1cccc(Cl)c1C(=O)NCC(c1cncs1)N1CCC(F)(F)CC1 (centres unmarked) [Compound 15, 2-chloro-N-[2-(4,4-difluoropiperidin-1-yl)-2-(1,3-thiazol-5-yl)ethyl]-6-methylbenzamide] |
| 46 | 37 | Cc1cccc(C)c1C(=O)NCC(c1scnc1C)N1CCc2ccccc2C1 (centres unmarked) [Compound 30, 2,6-dimethyl-N-[2-(4-methyl-1,3-thiazol-5-yl)-2-(1,2,3,4-tetrahydroisoquinolin-2-yl)ethyl]benzamide] |
| 34 | 30 | O=C(NCC(c1cncs1)N1CCC(F)(F)CC1)c1cc(-c2ncc(F)cn2)ccc1Cl (centres unmarked) [Compound 20, 2-chloro-N-[2-(4,4-difluoropiperidin-1-yl)-2-(1,3-thiazol-5-yl)ethyl]-5-(5-fluoropyrimidin-2-yl)-benzamide] |
| 141 | 24 | Cc1ncc(C(CNC(=O)c2cc(-c3ncc(F)cn3)ccc2Cl)N2CCC(F)(F)CC2)s1 (single isomer, unassigned; (-)) [Compound 128, (−)-2-chloro-N-[2-(4,4-difluoro-piperidin-1-yl)-2-(2-methylthiazol-5-yl)ethyl]-5-(5-fluoropyrimidin-2-yl)benzamide] |
